For one data set, the system named is A-431. In words: Antiproliferative activity against human A-431 cells assessed as reduction in cell viability incubated for 72 hrs by sulforhodamine B assay. Type of data set: functional, cell-based. The note with it: A-431, 72 h. (In general: In SRB staining, fixed cells bind dye roughly in proportion to their protein.)
The next data set deals with NCI-H1975. In words: Antiproliferative activity against human NCI-H1975 cells assessed as reduction in cell viability incubated for 72 hrs by sulforhodamine B assay. Type of data set: functional, cell-based. The note with it: NCI-H1975, 72 h.
A short description of data set [1]: Selectivity ratio of IC50 for antiproliferative activity against human A-431 cells to IC50 for antiproliferative activity against human NCI-H1975 cells. It is filed as functional.
The test system of data set [2] is BaF3. In words: Antitumor activity against mouse BAF3 cells harboring EGFR del19/T790M mutant xenografted in Balb/c nude mouse assessed as suppression of tumor growth at 3 to 5 mg/kg, po QD administered via gavage for 18 days relative to control. As to conditions: dose 3-5 mg/kg, time 18.0 day, tested as the 2H-labelled form. Type of data set: functional, organism-based.

Data set [3] in a line: Toxicity in Balb/c nude mouse xenografted with human NCI-H1975 cells harboring EGFR L858R/T790M mutant assessed as change in body weight at 1.5 to 2.5 mg/kg, po QD administered via gavage for 24 days and measured twice weekly. As to conditions: in vivo, 576 h, dose 1.5-2.5 mg/kg, time 24 day. It is filed as organism-based. (In general: In xenograft studies the graft and the host belong to different species.)

Data set [4] is described as follows: Half life in CD1 mouse liver microsomes preincubated for 10 mins under shaking condition followed by NADPH generating system addition and measured up to 60 mins by LC-MS/MS analysis. (Microsomes from liver hold many membrane-bound enzymes, among them those of drug oxidation.)
Data set [5] can be described thus: Half life in Sprague-Dawley rat liver microsomes preincubated for 10 mins under shaking condition followed by NADPH generating system addition and measured up to 20 mins by LC-MS/MS analysis.
Data set [6] can be described thus: Half life in Beagle dog liver microsomes preincubated for 10 mins under shaking condition followed by NADPH generating system addition and measured up to 60 mins by LC-MS/MS analysis.
The nature of data set [7]: Half life in cynomolgus monkey liver microsomes preincubated for 10 mins under shaking condition followed by NADPH generating system addition and measured up to 60 mins by LC-MS/MS analysis.
Data set [8] is described as follows: Intrinsic clearance in CD1 mouse liver microsomes preincubated for 10 mins under shaking condition followed by NADPH generating system addition and measured up to 60 mins by LC-MS/MS analysis. It is filed as ADME, Microsome. As to conditions: 1 h, time <=70 min.
Data set [9] in a line: Intrinsic clearance in Sprague-Dawley rat liver microsomes preincubated for 10 mins under shaking condition followed by NADPH generating system addition and measured up to 60 mins by LC-MS/MS analysis. It is filed as ADME, Microsome. As to conditions: 1 h, time <=70 min.
A short description of data set [10]: Intrinsic clearance in Beagle dog liver microsomes preincubated for 10 mins under shaking condition followed by NADPH generating system addition and measured up to 60 mins by LC-MS/MS analysis. It is filed as ADME, Canis lupus familiaris, Microsome. As to conditions: 1 h, time <=70 min.
Data set [11] can be described thus: Intrinsic clearance in cynomolgus monkey liver microsomes preincubated for 10 mins under shaking condition followed by NADPH generating system addition and measured up to 60 mins by LC-MS/MS analysis. The note with it: 1 h, time <=70 min. Type of data set: ADME, Macaca fascicularis, Microsome.
Data set [12] is described as follows: Intrinsic clearance in human liver microsomes preincubated for 10 mins under shaking condition followed by NADPH generating system addition and measured up to 60 mins by LC-MS/MS analysis. As to conditions: 1 h, time <=70 min. Type of data set: ADME, Microsome.
Data set [13] can be described thus: Cmax in Sprague-Dawley rat assessed as AZ5104 at 6 mg/kg/day, IG administered as single dose and measured up to 24 hrs by LC-MS/MS analysis. It is filed as ADME, organism-based. Also noted: route […], dose 6 mg/kg/day, time <=24. As to conditions: in vivo, po.
The nature of data set [14]: Tmax in Sprague-Dawley rat assessed as AZ5104 at 6 mg/kg/day, IG administered as single dose and measured up to 24 hrs by LC-MS/MS analysis. It is filed as ADME, organism-based. The note with it: in vivo, po.
Data set [15] in a line: Cmax in Sprague-Dawley rat at 6 mg/kg/day, IG administered as single dose and measured up to 24 hrs by LC-MS/MS analysis. Type of data set: ADME, organism-based. Also noted: route […], dose 6 mg/kg/day, time <=24. The note with it: in vivo, po.
A short description of data set [16]: Apparent oral clearance in Sprague-Dawley rat at 6 mg/kg/day, IG administered as single dose and measured up to 24 hrs by LC-MS/MS analysis. Type of data set: ADME, organism-based. As to conditions: in vivo.
The subject of data set [17] is BaF3. Nature of the data set: cells. As to conditions: Mus musculus, BaF3, 72 h.
The test system of data set [18] is BaF3. Nature of the data set: cells. As to conditions: Mus musculus, BaF3, 72 h. This is another data set of the same source.
The next data set in a line: in vivo. The note with it: Sprague-Dawley, rat, po, 6 mg/kg.
The next data set in a line: in vitro. The note with it: human, liver microsomes.

Calls of active or inactive are those of the source. The rule behind the calls is not given here.

For `C=C(Cl)C(=O)Nc1cc(Nc2nccc(-c3cn(C)c4ccccc34)n2)c(OC)cc1N(C)CCN(C)C`, the IC50 (commonly the concentration at which inhibition is half-maximal) in the data set with A-431 is 1550 nM; in the data set with NCI-H1975, 241 nM. The “Ratio IC50” value in data set [1] is reported as 6.
Taken in the same sequence, the figures for `C/C=C/C(=O)Nc1cc(Nc2nccc(-c3cn(C)c4ccccc34)n2)c(OC)cc1N(C)CCN(C)C` were 5790 nM, 496 nM and 12.
As for `C=CC(=O)Nc1cc(Nc2nccc(-c3cn(C)c4ccccc34)n2)c(OC)cc1N(C)CCN(C)C` [OSIMERTINIB], the figures for the IC50 with A-431, with BaF3 [17] and with BaF3 [18] were […], 21.5 nM and 4 nM, respectively. Further, in the data set with BaF3 [2], the outcome was Active. For the same compound, the Activity result in data set [3] is “Toxic”. In addition, the half-life (as a rule, the time in which the quantity being followed falls by half) at 1 h in data set [4] stood at 22.3 min; in data set [6], 26.1 min; in [7], […]; in “in vitro”, […]. Also, the half-life at 20 min in data set [5] was 36.8 min. The CLint was 62.1 µL/min/mg in data set [8]; 37.6 µL/min/mg in data set [9]; 53.2 µL/min/mg in data set [10]; 41.7 µL/min/mg in data set [11]; 8.1 µL/min/mg in data set [12]. The Cmax (as a rule, the highest concentration seen after dosing) in data set [13] turned out to be 6.4 nM; in [15], 145 nM. Further, the Tmax (commonly the time from dosing to the highest level) in data set [14] is 6.33 h. The CL/F (usually clearance divided by bioavailability, as obtained after extravascular dosing) in data set [16] was 18.8 L/h/kg. The compound further showed a half-life at 24 h in “in vivo” of 227 min.
`C=C(F)C(=O)Nc1cc(Nc2nccc(-c3cn(C)c4ccccc34)n2)c(OC)cc1N(C)CCN(C)C`: the IC50 in the data set with A-431 turned out to be 2500 nM; in the data set on NCI-H1975, 208 nM. In addition, the “Ratio IC50” value in data set [1] turned out to be 12.
On to `[2H]C([2H])=CC(=O)Nc1cc(Nc2nccc(-c3cn(C([2H])([2H])[2H])c4ccccc34)n2)c(OC)cc1N(C)CCN(C)C`, for which the IC50 amounted to […] with A-431, […] in the data set with NCI-H1975, 18 nM in the data set on BaF3 [17] and 3.5 nM in the data set on BaF3 [18].
On to `C=C(Br)C(=O)Nc1cc(Nc2nccc(-c3cn(C)c4ccccc34)n2)c(OC)cc1N(C)CCN(C)C`, for which the values for the IC50 in the data set with A-431 and in the data set with NCI-H1975 were 1060 nM and 147 nM, respectively. In addition, the “Ratio IC50” value in data set [1] came to 7.
Taken in the same sequence, the figures for `C=C(C)C(=O)Nc1cc(Nc2nccc(-c3cn(C)c4ccccc34)n2)c(OC)cc1N(C)CCN(C)C` were 5340 nM, 486 nM and 11.
On to `[2H]C([2H])=CC(=O)Nc1cc(Nc2nccc(-c3cn(C)c4ccccc34)n2)c(OC)cc1N(C)CCN(C)C`, for which the half-inhibitory concentration (IC50) in the data set on A-431 amounted to […]; in the data set on NCI-H1975, […].
As to `C=C(C(=O)Nc1cc(Nc2nccc(-c3cn(C)c4ccccc34)n2)c(OC)cc1N(C)CCN(C)C)C(F)(F)F`, the IC50 with A-431 was 11200 nM; with NCI-H1975, 546 nM. Also, the “Ratio IC50” value in [1] is 21.
